Assay results taken from US7816361B2, “Immuno inhibitory pyrazolone compounds” (Medigene Limited, priority 2003, dated 2010).

Biological target: T1, CD80-CD28 interaction (Homo sapiens, UniProt P33681)
T1 sequence (P33681 35-242 limits assumed): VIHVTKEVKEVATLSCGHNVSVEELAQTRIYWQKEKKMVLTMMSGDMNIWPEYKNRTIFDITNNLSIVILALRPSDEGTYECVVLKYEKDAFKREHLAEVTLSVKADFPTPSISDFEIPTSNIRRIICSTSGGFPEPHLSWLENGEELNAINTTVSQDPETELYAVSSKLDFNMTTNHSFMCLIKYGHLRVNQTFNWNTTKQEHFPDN
Assay: Homogenous Time Resolved Fluorescence (HTRF) assay, cell free
Format: binding
Conditions: inhibition of CD80-CD28 interaction; concentration series 100 μM-1.7 nM; 4 hours at room temperature; read-out: Activity Rating (EC50) in the HTRF assay
Protocol: Homogenous Time Resolved Fluorescence Assay
The examples described above were tested in a cell free Homogenous Time Resolved Fluorescence (HTRF) assay to determine their activity as inhibitors of the CD80-CD28 interaction.
In the assay, europium and allophycocyanin (APC) are associated with CD28 and CD80 indirectly (through antibody linkers) to form a complex, which brings the europium and APC into close proximity to generate a signal. The complex comprises the following six proteins: fluorescent label 1, linker antibody 1, CD28 fusion protein, CD80 fusion protein, linker antibody 2, and fluorescent label 2. The table below describes these reagents in greater detail.
On formation of the complex, europium and APC are brought into proximity and a signal is generated.
Non-specific interaction was measured by substituting a mouse Fab fragment (C215) for the CD80 mouse Fab fragment fusion protein (1.9 μg/ml). The assay was carried out in black 384 well plates in a final volume of 30 μl. Assay buffer: 50 mM Tris-HCl, 150 mM NaCl pH7.8, containing 0.1% BSA (w/v) added just prior to use.
Compounds were added to the above reagents in a concentration series ranging between 100 μM-1.7 nM. The reaction was incubated for 4 hours at room temperature. Dual measurements were made using a Wallac Victor 1420 Multilabel Counter. First measurement: excitation 340 nm, emission 665 nm, delay 50 μs, window time 200 μs. second measurement: excitation 340 nm, emission 615 nm, delay 50 μs, window time 200 μs. Counts were automatically corrected for fluorescence crossover, quenching and background. The EC50 activities of compounds tested are recorded as: EC50: *=>10 μM, **=1-10 μM, ***=<1 μM.

Row | Molecule | EC50 [nM]
1 | O=C(NCCCNC1CCCCC1)c1ccc(-n2[nH]c(-c3ccco3)cc2=O)cc1 [Example 14] | < 1000
2 | O=C(NCCCNC1CCCCC1)c1ccc(-n2[nH]c(-c3ccccn3)cc2=O)cc1 [Example 13] | 1000 to 10000
3 | O=C(NCCCCN1CCCC1)c1ccc(-n2[nH]c(-c3ccccn3)cc2=O)cc1 [Example 24] | < 1000
4 | CN(C)CCCNC(=O)c1ccc(-n2[nH]c(-c3ccoc3)cc2=O)cc1 [Example 17] | 1000 to 10000
5 | CN(C)CCCNC(=O)c1ccc(-n2[nH]c(-c3ccco3)cc2=O)cc1 [Example 11] | < 1000
6 | O=C(NCCCCN1CCCC1)c1ccc(-n2[nH]c(-c3ccco3)cc2=O)cc1 [Example 21] | 1000 to 10000
7 | O=C(NCCCCN1CCCC1)c1ccc(-n2[nH]c(-c3cc4ccccc4o3)cc2=O)cc1 [Example 31] | 1000 to 10000
8 | O=C(NCCCCN1CCCC1)c1ccc(-n2[nH]c(-c3cnccn3)cc2=O)cc1 [Example 29] | 1000 to 10000
9 | O=C(NCCCNC1CCCCC1)c1ccc(-n2[nH]c(-c3ccccc3)cc2=O)cc1 [Example 9] | 1000 to 10000
10 | O=C(NCCCNC1CCCCC1)c1ccc(-n2[nH]c(-c3ccoc3)cc2=O)cc1 [Example 18] | < 1000
11 | O=C(NCCCCN1CCCC1)c1ccc(-n2[nH]c(-c3ccoc3)cc2=O)cc1 [Example 22] | 1000 to 10000
12 | O=C(NCCN1CCN(Cc2ccccc2)CC1)c1ccc(-n2[nH]c(-c3ccccc3)cc2=O)cc1 [Example 6] | > 10000
13 | O=C(NCCCNC1CCCCC1)c1ccc(-n2[nH]c(-c3cccc(F)c3)cc2=O)cc1 [Example 27] | 1000 to 10000
14 | O=C(NCCCCN1CCCC1)c1ccc(-n2[nH]c(-c3ccccc3)cc2=O)cc1 [Example 8] | < 1000
15 | CN(C)CCCNC(=O)c1ccc(-n2[nH]c(-c3cc4ccccc4o3)cc2=O)cc1 [Example 32] | 1000 to 10000
16 | O=C(NCCCNC1CCCCC1)c1ccc(-n2[nH]c(-c3cc4ccccc4o3)cc2=O)cc1 [Example 33] | 1000 to 10000

Second part, the molecule after the results:

Row | EC50 [nM] | Molecule
17 | 1000 to 10000 | O=C(NCCCCN1CCCC1)c1ccc(-n2[nH]c(-c3cccnc3)cc2=O)cc1 [Example 25]
18 | < 1000 | CN(C)CCCNC(=O)c1ccc(-n2[nH]c(-c3cnccn3)cc2=O)cc1 [Example 30]
19 | 1000 to 10000 | CN1C(C)(C)CC(NC(=O)c2ccc(-n3[nH]c(-c4cccnc4)cc3=O)cc2)CC1(C)C [Example 23]
20 | < 1000 | CN(C)CCCNC(=O)c1ccc(-n2[nH]c(-c3cccc(F)c3)cc2=O)cc1 [Example 26]
21 | 1000 to 10000 | CN1C(C)(C)CC(NC(=O)c2ccc(-n3[nH]c(-c4ccccc4)cc3=O)cc2)CC1(C)C [Example 7]
22 | 1000 to 10000 | CN1C(C)(C)CC(NC(=O)c2ccc(-n3[nH]c(-c4cc5ccccc5o4)cc3=O)cc2)CC1(C)C [Example 34]
23 | 1000 to 10000 | CN1C(C)(C)CC(NC(=O)c2ccc(-n3[nH]c(-c4ccoc4)cc3=O)cc2)CC1(C)C [Example 20]
24 | 1000 to 10000 | CN(C)CCCNC(=O)c1ccc(-n2[nH]c(-c3cccnc3)cc2=O)cc1 [Example 12]
25 | < 1000 | CN1C(C)(C)CC(NC(=O)c2ccc(-n3[nH]c(-c4ccccn4)cc3=O)cc2)CC1(C)C [Example 16]
26 | < 1000 | CN1C(C)(C)CC(NC(=O)c2ccc(-n3[nH]c(-c4ccco4)cc3=O)cc2)CC1(C)C [Example 19]
27 | < 1000 | CN(C)CCCNC(=O)c1ccc(-n2[nH]c(-c3ccccn3)cc2=O)cc1 [Example 10]
28 | > 10000 | CN1C(C)(C)CC(NC(=O)c2ccc(-n3[nH]c(-c4ccno4)cc3=O)cc2)CC1(C)C [Example 2, 4-(3-Isoxazol-5-yl-5-oxo-2,5-dihydro-pyrazol-1-yl)-N-(1,2,2,6,6-pentamethyl-piperidin-4-yl)-benzamide]
29 | > 10000 | Cc1c(-c2ccco2)[nH]n(-c2ccc(C(=O)NC3CC(C)(C)N(C)C(C)(C)C3)cc2)c1=O [Example 3, 4-(3-Furan-2-yl-4-methyl-5-oxo-2,5-dihydro-pyrazol-1-yl)-N-(1,2,2,6,6-pentamethyl-piperidin-4-yl)-benzamide]
30 | 1000 to 10000 | CN(C)CCCNC(=O)c1ccc(-n2[nH]c(-c3ccccc3)cc2=O)cc1 [Example 5]
31 | < 1000 | CN1C(C)(C)CC(NC(=O)c2ccc(-n3[nH]c(-c4cccc(F)c4)cc3=O)cc2)CC1(C)C [Example 28]
32 | 1000 to 10000 | O=C(NCCCNC1CCCCC1)c1ccc(-n2[nH]c(-c3cccnc3)cc2=O)cc1 [Example 15]

Biological target: T2, Biotinylated human CD80 (hCD80-BT) (Homo sapiens, UniProt P33681)
T2 construct: biotin (biotinylation)
T2 sequence (P33681 35-242 limits assumed): T1 sequence (P33681 35-242 limits assumed)
Assay: Biacore biomolecular interaction analysis (BIAcore S51)
Format: binding
Conditions: BIAcore S51, immobilised hCD80-BT
Text: Assay Protocols The Use of Biacore Biomolecular Interaction Analysis
Biotinylated human CD80 (hCD80-BT) is a recombinant soluble form of a membrane bound receptor molecule (CD80) which binds to CD28 to initiate T cell activation. The interaction between CD80 and CD28 has been extensively investigated (Collins et al., 2002). Biotinlyated human HLA-A2-tax is the recombinant soluble form of a membrane bound receptor molecule that has been used in this example as a control protein, and is not expected to interact with the compounds.
The BIAcore S51™ system was used for screening the compounds of Examples 1-4 above. A series S sensor chip CM5 was docked onto the BIAcore S51™. Streptavidin was coupled to the carboxymethyl surface using standard amine coupling. The chip surface was activated with 0.2M EDC/0.05M NHS, followed by binding of streptavidin (0.25 mg/ml in 10 mM sodium acetate pH 5.0) and saturation of unoccupied sites with […].
The BIAcore S51 sensor chip has two separate sensor spots for immobilisation of proteins. hCD80-BT was immobilised on the streptavidin-coated surface of one sensor spot until a response of approximately 3000 RU was observed. A protein to control for non-specific binding of the compound was immobilised on a second sensor spot. The control protein used for these experiments was a biotinylated, soluble form of the human HLA protein.
Dilution series of compounds (1000 nM-0.05 nM) were prepared in running buffer (10 mM, pH 7.4, 150 mM NaCl, 0.005% P20; 5% DMSO).
BIAcore S51™ was run at a flow rate of 30 μl/min using running buffer. Compounds and DMSO standard solutions for correction of data for solvent effects were injected. Data were recorded automatically and were analysed using BIAcore S51 Evaluation software.

Row | Kd [nM] | off-rate on CD80 | Molecule
33 | < 100 | 2×10^−2 | CN1C(C)(C)CC(NC(=O)c2ccc(-n3[nH]c(-c4ccccc4)cc3=O)cc2)CC1(C)C [Example 7]
34 | < 100 | 2×10^−2 | CN(C)CCCNC(=O)c1ccc(-n2[nH]c(-c3ccco3)cc2=O)cc1 [Example 11]

Tested on: IL-2 production by human Jurkat T cells (with Raji cells, anti-CD3)
Assay: Inhibition of production of interleukin-2 (IL-2) by human Jurkat T cells
Format: cell-based
Conditions: 5 hours
Protocol: Inhibition of Production of Interleukin-2 (IL-2) by Human Jurkat T Cells.
Human Raji cells were dispensed at a concentration of 2×10^5 cells per well in RPMI-1640 medium supplemented with 10% fetal calf serum, 1% penicillin/streptomycin, 1% glutamine (RPMI medium) in a 96-well round bottom microtitre plate. Compounds under investigation (dissolved in 100% DMSO) were diluted to eight-fold the desired final concentration in RPMI medium and added to the required final concentration for a total volume of 200 μl per well. After 20 minutes incubation at 37° C., Jurkat T cells were added at a concentration of 2×10^5 cells per well. Monoclonal antibody to CD3 (UCHT1, R&D Systems) was added to the cultures at a final concentration of 1 μg per ml, and where indicated, monoclonal antibody to CD28 (CD28.2, BD-Pharmingen) was also added at a concentration of 2.5 μg per ml. Cells were cultured at 37° C. for 5 hours, after which the plates were centrifuged and the supernatants harvested for IL-2 ELISA assay using the IL-2 Eli-pair kit (DIACLONE Research, Besancon, France) according to the manufacturers instructions.

Row | Molecule | inhibition at 30 µM [%]
35 | CN(C)CCCNC(=O)c1ccc(-n2[nH]c(-c3cccc(F)c3)cc2=O)cc1 [Example 26] | 52

Biological target: T2, Biotinylated human CD80 (hCD80-BT)
Assay: not given
Conditions: endogenous protein ligand CD28; cited from earlier work

Row | Molecule | off-rate of CD80-CD28 interaction
36 | CD28: the endogenous protein ligand of CD80 | greater than 0.2 s^−1

Same assay, conditions: endogenous protein ligand CD28; read-out: KD of CD80-CD28 interaction; cited from earlier work

Row | Molecule | Kd [nM]
37 | CD28: the endogenous protein ligand of CD80 | 4750
